Experimental data as given in patent US20250034151A1, “WEE1 INHIBITOR, PREPARATION THEREFOR, AND USE THEREOF” (JIANGSU TASLY DIYI PHARMACEUTICAL CO., LTD., priority 2022, published 2025).

What was measured:
H1299 cells = experiment: Anti-proliferative effect on H1299 cells by Cell Titer-Glo; format: cell-based; settings: Homo sapiens, NCI-H1299, 72 h, 3 days, read-out: H1299 (IC50, inhibition of proliferation in vitro)
Procedure: (§1) Test Example 2: Evaluation of Cell Proliferation Inhibitory Activity
1. Evaluation of the Anti-Proliferative Effect of Compounds on H1299 Cells by the Cell Titer-Glo Method
(§2) Compound solutions of different concentration gradients were prepared. […] The cell growth group without compound was used as a positive control (maximum signal control) and the medium was used as a negative control (minimum signal control), while ensuring that the final level of DMSO in each reaction well was 0.2%. After removing the medium from the 384-well plate, 25 ul of the configured compound at different concentrations was transferred into the well plate and the compound and cells were incubated in the cell incubator at 37° C. with 5% CO2 for 3 days.
The 384-well plates were removed from the cell incubator and allowed to equilibrate for 1h to room temperature. 25 ul of Cell Titer-Glo assay was added to each well, lysed on a shaker for 2 min and then read out (Luminescence) using a BMG PHERAStar after 10 min incubation. Calculate the inhibition rate from the luminescence signal: first calculate the average of the positive control (maximum signal control) and the negative control (minimum signal control).
was used to calculate the rate of inhibition of the cells by different concentrations of the compounds. The IC50 of the compound on cell activity inhibition was calculated by fitting a log(inhibitor) vs. response-Variable slope model to GraphPad Prism 6. The fitted equation was: Y=Bottom+(Top−Bottom)/(1+10^((Log IC50−X)*HillSlope)), where Y represents the rate of inhibition and X represents the concentration of the known compound after Log.
(§3) The results of the in vitro anti-cell proliferation assays of H1299 and MIA Paca-2 for the example compounds according to the method described above are shown in Table 2, wherein the IC50 of each compound was determined and classified according to the description as follows: […]

Wee1 protein = biological target: T1, Wee1 protein (Homo sapiens, UniProt P30291); experiment: Binding of compound to Wee1 protein and Tracer 178 by TR-FRET (Wee1 kinase inhibitory activity); settings: 15 nM WEE1, 50 nM Tracer 178, read-out: IC50 (inhibitory activity against Wee1 kinase)
T1 construct: purchased Thermo Fisher PR7373A
T1 sequence (P30291 whole entry): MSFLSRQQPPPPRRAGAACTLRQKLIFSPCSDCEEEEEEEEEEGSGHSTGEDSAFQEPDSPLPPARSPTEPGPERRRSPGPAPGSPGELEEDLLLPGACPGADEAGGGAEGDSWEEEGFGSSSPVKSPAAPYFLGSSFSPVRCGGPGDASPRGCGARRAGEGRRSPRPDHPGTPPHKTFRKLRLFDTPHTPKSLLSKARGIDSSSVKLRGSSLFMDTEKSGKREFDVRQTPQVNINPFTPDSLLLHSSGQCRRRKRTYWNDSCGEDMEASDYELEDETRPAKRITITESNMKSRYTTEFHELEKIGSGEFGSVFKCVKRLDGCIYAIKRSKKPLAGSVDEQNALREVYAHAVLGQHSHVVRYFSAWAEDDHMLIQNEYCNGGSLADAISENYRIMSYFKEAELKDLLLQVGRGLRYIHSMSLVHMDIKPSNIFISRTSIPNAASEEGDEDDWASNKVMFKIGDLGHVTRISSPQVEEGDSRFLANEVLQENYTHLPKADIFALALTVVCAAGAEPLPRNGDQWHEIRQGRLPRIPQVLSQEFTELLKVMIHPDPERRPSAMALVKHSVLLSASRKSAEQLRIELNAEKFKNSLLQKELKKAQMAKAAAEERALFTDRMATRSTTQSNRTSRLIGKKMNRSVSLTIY
Procedure: First, solutions of the compounds in different concentration gradients were prepared. The compounds were dissolved in DMSO and the compounds were diluted 4 folds with a total of 10 dose points and 2 parallel replicates for each concentration.
The IC50 for inhibition of enzyme activity by the compounds was then calculated using GraphPad Prism 6 and fitted with a log (inhibitor) vs. response-Variable slope mode. The fitting equation was: Y=Bottom+(Top−Bottom)/(1+10^((Log IC50−X)*HillSlope)), wherein Y represents the percentage of residual enzyme activity known and X represents the known concentration of compound after the logarithm.

[1] = Liver microsomes in vitro stability (mouse); format: in vitro ADME; settings: read-out: T1/2/min
Procedure: (§4) 1. Preparation of Working Solution:
(§5) Microsomes were taken out from the −80° C. refrigerator, rapidly melted in a 37° C. water bath and placed on ice until ready to use. The test article was diluted with DMSO to prepare a 10 mM stock solution, and then diluted with acetonitrile to a 0.5 mM secondary stock solution. […] NADPH was diluted with Buffer C to a working solution of 6 mM for the starter solution. An acetonitrile solution containing an internal standard was prepared as the precipitant, and Verapamil-HCl was chosen as the internal standard at a concentration of 4 ng/ml.
(§6) 2. Experimental Procedure:
(§7) A round-bottom well plate was taken, noted as the reaction plate, and the prepared working solution for each compound was dispensed into the well plate according to the number of replicates and time points (0 h samples were also added to the reaction plate), 30 μL/well; the plate was incubated at 37° C. for 10 min. A separate plate with pointed bottom wells, noted as a precipitation plate, was added with 135 μL precipitant per well; 0 h samples were transferred to the plate after 10 min incubation and 15 μL of starter solution was added; the plate was placed on ice before centrifugation.
(§8) The diluted starter solution was added in sufficient quantity to the dispensing plate to facilitate the multichannel pipette aspiration operation.
(§9) The reaction was carried out on a warm incubation shaker and 15 μL of starter solution/sample is added to the plate using a multichannel pipette. The reaction was mixed with a slight shake to initiate the reaction, which was accurately timed and recorded using a timer. In general, samples with shorter reaction times are initiated late and vice versa early, allowing sufficient time for multiple plate manipulation to terminate the reaction. For example, as for the four experiments of 5, 15, 30, and 60 min, the 60 min experiment was started first, and the 5 min experiment was started later, so as to leave sufficient time for the 5 min group.
(§10) After the reaction time had elapsed, all the solution in the plate was aspirated using the multichannel pipette and added to the precipitation plate to terminate the reaction at that point in time. After all reactions had been terminated, the plates were shaken for ten minutes on a plate shaker at 600 rpm to precipitate the protein. The plate was centrifuged at 4° C. for 15 minutes at maximum rpm. 80 μL of supernatant was taken, 320 μL of pure water was added and mixed for LC-MS analysis.

[2] = Liver microsomes in vitro stability (human); format: in vitro ADME; settings: read-out: T1/2/min (H)
Procedure: as §4, §5, §6, §7, §8, §9, §10

MIA PaCa2 cells = experiment: Anti-proliferative effect on MIA PaCa2 cells by Cell Titer-Glo; format: cell-based; settings: Homo sapiens, MIA PaCa-2, 72 h, 3 days, read-out: MIA PaCa 2 (IC50, inhibition of proliferation in vitro)
Procedure: as §1
2. Evaluation of the Anti-Proliferative Effect of Compounds on MIA PaCa2 Cells by the Cell Titer-Glo Method
as §2
The 384-well plates were removed from the cell incubator and allowed to equilibrate for 1 h to room temperature. 25 ul of Cell Titer-Glo assay was added to each well, lysed on a shaker for 2 min and then read out (Luminescence) using a BMG PHERAStar after 10 min incubation. Calculate the inhibition rate from the luminescence signal: first calculate the average of the positive control (maximum signal control) and the negative control (minimum signal control).
was used to calculate the rate of inhibition of the cells by different concentrations of the compounds. The IC50 of the compound on cell activity inhibition was calculated by fitting a log(inhibitor) vs. response-Variable slope model to GraphPad Prism 6. The fitted equation was: Y=Bottom+(Top-Bottom)/(1+10^((Log IC50−X)*HillSlope)), wherein Y represents the rate of inhibition and X represents the concentration of the known compound after Log.
as §3

[3] = Membrane permeability study (Caco-2); format: in vitro ADME; settings: human; for efflux ratio at 90 min, 10 µM: Caco-2, pH 7.4; for Papp A→B at 90 min, 10 µM / Papp B→A at 90 min, 10 µM: pH 7.4, Caco-2, 10 μM; for Papp A→B at 90 min, 10 µM: apical to basolateral; for Papp B→A at 90 min, 10 µM: basolateral to apical
Procedure: Caco-2 cells were purchased from the […] (Rockville, MD). The cell culture medium was modified Eagle's medium (MEM) containing 10% inactivated fetal bovine serum and 1% non-essential amino acids.
The cells were incubated for 21-28 days after inoculation for transport experiments and the apparent permeability (Papp) of Lucifer Yellow was used to characterize and verify the compactness of the cell monolayer. […] A 10 μM working solution of the compound to be tested was added to the apical side and basolateral side of Caco-2 and incubated at 37° C. for 90 min. After the incubation, dilute the samples on the apical side and basolateral side, and the concentrations of compounds on the apical and basolateral sides were detected by LC-MS/MS, and the concentrations of the compounds were quantified by standard curve.

[4] = Pharmacokinetics on single dose in mice (intravenous and oral); format: in vivo, ICR mice; settings: male, ICR, mouse, plasma, Oral, 10 mg/kg
Procedure: 1. Experimental Aim: The present experiment aimed to obtain the pharmacokinetic profile of the subject compounds in ICR mice (both intravenous and oral) 3.1.2 Test System Species: SPF grade male ICR mice Body weight/weekly age: about 30 g 4. […] 4.2 Subjects Given (Route) Intravenous: 1 mg/kg in a volume of 5 mL/kg Gavage: 10 mg/kg in a volume of 10 mL/kg Ultrasound for 5 min before administration 4.3 Subject Preparation (Concentration) Intravenous: 0.2 mg/mL Gavage: 1 mg/mL Fast overnight before administration and feed four hours after administration. […] The blood samples were stored in a refrigerator at or below −20° C. for LC-MS/MS analysis. […] LC-MS/MS Analytical Detection Used 5. Data Processing The samples were detected for drug concentration at each time point by LC-MS/MS. Pharmacokinetic parameters terminal elimination half-life (t1/2), area under the curve (AUC), apparent volume of distribution (Vd), clearance (CL), mean residence time (MRT), and Cmax were calculated using the non-compartmental model of Phoenix WinNonlin 5.2. Bioavailability (F %) was directly from serum concentration results. Mean±standard deviation (X±SD) was used for blood concentration and pharmacokinetic parameters, etc. Specific testing and analytical methods were specified in the form of protocol revisions.

[5] = Plasma protein binding (PPB), equilibrium dialysis; format: in vitro ADME; settings: mouse plasma, 5 h dialysis
Description: 1. Experimental Procedure
2. Data Processing and Parameter Calculation

C=CCn1c(=O)c2cnc(Nc3ccc(OC4CN5CCC4CC5)cc3)nc2n1-c1cccc(C(C)(C)O)n1 (stereo not drawn) [Compound 4]
IC50 (H1299 cells): 1000 to 2000 nM
IC50 (Wee1 protein): < 5 nM
half-life at 1 µM [1]: 10.1 min
half-life at 1 µM [2]: 22.2 min

C=CCn1c(=O)c2cnc(Nc3ccc(CC4C(=O)C5CCN4CC5)cc3)nc2n1-c1cccc(N=S(C)(C)=O)n1 (stereo not drawn) [Compound 6]
IC50 (H1299 cells): 100 to 1000 nM
IC50 (Wee1 protein): < 5 nM
half-life at 1 µM [1]: 5.72 min
half-life at 1 µM [2]: 5.16 min

C=CCn1c(=O)c2cnc(Nc3ccc(OCC)c(CC4C(=O)C5CCN4CC5)c3)nc2n1-c1cccc(N=S(C)(C)=O)n1 (stereo not drawn) [Compound 9]
IC50 (H1299 cells): 1000 to 2000 nM
IC50 (Wee1 protein): < 5 nM
half-life at 1 µM [1]: 0.78 min
half-life at 1 µM [2]: 2.82 min

C=CCn1c(=O)c2cnc(Nc3cccc(CC4C(=O)C5CCN4CC5)c3)nc2n1-c1cccc(N=S(C)(C)=O)n1 (stereo not drawn) [Compound 10]
IC50 (H1299 cells): 100 to 1000 nM
IC50 (Wee1 protein): < 5 nM
half-life at 1 µM [1]: 1.34 min
half-life at 1 µM [2]: 8.31 min

C=CCn1c(=O)c2cnc(Nc3ccc(N4C[C@@H]5C[C@H]4CN5C)c(C)c3)nc2n1-c1cccc(C(C)(C)O)n1 [Compound 12]
IC50 (H1299 cells): 100 to 1000 nM
IC50 (Wee1 protein): 5 to 10 nM
IC50 (MIA PaCa2 cells): 100 to 1000 nM
efflux ratio at 90 min, 10 µM [3]: 11.8
Papp A→B at 90 min, 10 µM [3]: 2.84 ×10⁻⁶ cm/s
Papp B→A at 90 min, 10 µM [3]: 33.5 ×10⁻⁶ cm/s
half-life at 1 µM [1]: 31.5 min

C=CCn1c(=O)c2cnc(Nc3ccc(N4CC5CC(CN(CC(F)(F)F)C5)C4)cc3)nc2n1-c1cccc(C(C)(C)O)n1 [Compound 33]
IC50 (H1299 cells): 1000 to 2000 nM
IC50 (Wee1 protein): 10 to 100 nM
IC50 (MIA PaCa2 cells): 2000 to 5000 nM
efflux ratio at 90 min, 10 µM [3]: 0.83
Papp A→B at 90 min, 10 µM [3]: 9.12 ×10⁻⁶ cm/s
Papp B→A at 90 min, 10 µM [3]: 7.56 ×10⁻⁶ cm/s

C=CCn1c(=O)c2cnc(Nc3ccc(N4CC5CC(CN(CCF)C5)C4)cc3)nc2n1-c1cccc(C(C)(C)O)n1 [Compound 37]
IC50 (H1299 cells): 2000 to 5000 nM
IC50 (Wee1 protein): 10 to 100 nM
IC50 (MIA PaCa2 cells): 100 to 1000 nM
half-life at 1 µM [1]: 21.7 min

C=CCn1c(=O)c2cnc(Nc3ccc(N4C[C@H]5C[C@@H](C4)N5C)cc3)nc2n1-c1cccc(N=S(C)(C)=O)n1 [Compound 39]
IC50 (H1299 cells): 100 to 1000 nM
IC50 (Wee1 protein): < 5 nM
IC50 (MIA PaCa2 cells): ≤ 100 nM
half-life at 1 µM [1]: > 120 min

C=CCn1c(=O)c2cnc(Nc3ccc(N4CC5CC(C4)N5C(C)C)cc3)nc2n1-c1cccc(C(C)(C)O)n1 [Compound 42]
IC50 (H1299 cells): 100 to 1000 nM
IC50 (Wee1 protein): 10 to 100 nM
IC50 (MIA PaCa2 cells): 100 to 1000 nM
efflux ratio at 90 min, 10 µM [3]: 7.99
Papp A→B at 90 min, 10 µM [3]: 6.22 ×10⁻⁶ cm/s
Papp B→A at 90 min, 10 µM [3]: 49.7 ×10⁻⁶ cm/s

C=CCn1c(=O)c2cnc(Nc3ccc(N4CC5CC(C4)N5C4CCC4)cc3)nc2n1-c1cccc(C(C)(C)O)n1 [Compound 49]
IC50 (H1299 cells): 100 to 1000 nM
IC50 (Wee1 protein): < 5 nM
IC50 (MIA PaCa2 cells): 100 to 1000 nM
AUC(0-t) [4]: 534 ng·h/mL
Cmax [4]: 388 ng/mL
MRT [4]: 68.4 min
half-life [4]: 61.8 min
fraction unbound at 5 h, 1 µM [5]: 0.042

C=CCn1c(=O)c2cnc(Nc3ccc(N4CC5CC(C4)N5C)cc3)nc2n1-c1ccc2oc(=O)n(CC)c2c1 [Compound 54]
IC50 (H1299 cells): 2000 to 5000 nM
IC50 (Wee1 protein): 5 to 10 nM
IC50 (MIA PaCa2 cells): 2000 to 5000 nM
half-life at 1 µM [1]: 77 min

C=CCn1c(=O)c2cnc(Nc3ccc(N4CC5CC(C4)N5C)cc3)nc2n1-c1ccc2c(c1)C(C)(O)CO2 (stereo not drawn) [Compound 57]
IC50 (H1299 cells): > 10000 nM
IC50 (Wee1 protein): 10 to 100 nM
IC50 (MIA PaCa2 cells): > 10000 nM
half-life at 1 µM [1]: 43.9 min

C=CCn1c(=O)c2cnc(Nc3ccc(C(=O)N(C)C4CN5CCC4CC5)cc3)nc2n1-c1cccc(C(C)(C)O)n1 (stereo not drawn) [Compound 62]
IC50 (H1299 cells): 1000 to 2000 nM
IC50 (Wee1 protein): 5 to 10 nM
IC50 (MIA PaCa2 cells): 100 to 1000 nM
half-life at 1 µM [1]: 25.1 min
